Measured values: patent US7531695B2, “Therapeutic agents for the treatment of cancer, metabolic diseases and skin disorders” (Auspex Pharmaceutical, Inc, priority 2004, dated 2009)
Structures can show the parent of a compound that is named as a salt.

How the values were obtained:
A375 cells = assay: A375 Tumor Cell Proliferation Assay; format: cell-based; conditions: Homo sapiens, A-375, read-out: LC50 (50% Lethal Concentration)
Description: (§1) A375 cells (5,000 per well in 90% RPMI-1640 plus 10% Fetal Bovine Serum [FBS]) were pre-incubated in a black clear bottom 96-well plate in an atmosphere of 5% CO2 at 37° C. for 24 hours. Stock solutions of compounds in DMSO were diluted using a buffer and dilutions were added to each well. […] The final assay pH was 7.4. The cells were incubated in RPMI-1640 with each compound for an additional 72 to 168 hours. Alamar Blue was added and the plate was incubated for an additional 12 hours. Fluorescence intensity was measured using a Gemini plate reader with excitation at 530 nm and emission at 590 nm. A decrease of 50 percent or more (≧50%) in fluorescence intensity relative to vehicle treated controls is an indication of significant anti-cancer activity.

[1] = tested on: human head and neck squamous cell carcinoma cells (SCC 103); assay: SCC103 Tumor Cell Proliferation Assay; format: cell-based; conditions: SCC 103 cells; compared to Bexarotene; FIG. 1
Description: as §1, with “SCC 103” for “A375”, “(15,000” for “(5,000”, “EMEM medium” for “RPMI-1640”, “EMEM medium” for “RPMI-1640 with each compound”, “72” for “72 to 168”, “Blue (10% of culture volume)” for “Blue”

SMILES: COc1cccc2c1C(=O)c1c(O)c3c(c(O)c1C2=O)C[C@@](O)(C(=O)CO)C[C@@H]3O[C@H]1C[C@H](N)[C@H](O)[C@H](C)O1 [Doxorubicin]
- CC50 (A375 cells): 8 µM

SMILES: Cc1cc2c(cc1C(=O)c1ccc(C3=C(O)CCCC3=O)cc1)C(C)(C)CCC2(C)C [Example 8, 3-Hydroxy-2-[4(3,5,5,8,8-pentamethyl-5,6,7,8-tetrahydronaphthalene-2-carbonyl)-phenyl]-cyclohex-2-enone potassium salt]
- growth inhibitory effect [1]: enhanced activity

SMILES: C=C(c1ccc(C2=C(O)CCCC2=O)cc1)c1cc2c(cc1C)C(C)(C)CCC2(C)C [Example 5, 5-3-Hydroxy-2-{4-[1-(3,5,5,8,8-pentamethyl-5,6,7,8-tetrahydro-naphthalen-2-yl)-vinyl]-phenyl}-cyclohex-2-enone]
- growth inhibitory effect [1]: enhanced activity
